Consider 1 compound from patent publication US20130171161A1, “METHOD AND COMPOSITION FOR THE TREATMENT OF DISEASES CAUSED BY OR ASSOCIATED WITH HIV” (priority 2010, published 2013).

Molecules are shown by their SMILES. Where two headings read alike, the source gives them in different places.

Test [1] has as its system HIV-1 LAI. Kind of test: Inhibition of HIV replication (p24 level) in human peripheral blood mononuclear cells infected in vitro, Example 1. The conditions noted are these: Human immunodeficiency virus 1, PBMC; 1000 nM added 24 hours before infection; day 7; read-out: inhibition of HIV replication (p24 in supernatant). Type of test: cell-based. How it is done: The assessment of antiretroviral activity of ultra low-dose of rabbit polyclonal antibodies to CD4 receptor (a mixture of homoeopathic dilutions C12+C30+C50) (ULD Ab CD4)), was carried out using human peripheral blood mononuclear cells infected with the strain HIV-1 LAI in vitro.
Human peripheral blood mononuclear cells were isolated from blood of a seronegative healthy donor by centrifugation on a Ficoll-Hypaque density gradient. The cells were stimulated for 3 days with 1 μg/mL of phytohemagglutinin P and 5 IU/mL of recombinant human interleukin-2.
In order to assess antiretroviral activity the products were placed in a well containing 100 μL of activated mononuclears 24 hours before or 15 min after cell infection with the strain HIV-1-LAI at the dose of 100 TCID50 (50 μL inoculum of the strain HIV-1-LAI). Before adding to a well, ULD Ab CD4 (12.5 μL) or reference azidotimidine (1000 nM) were mixed with RPMI1640 medium (DIFCO) to achieve a final probe volume of 50 μL
The supernatant fluids were collected on day 7 after infection of cells. The products' activity was measured by the inhibition of HIV replication which was assessed by the level of core nucleocapsid protein p24 in the supernatant fluid from human peripheral blood mononuclear cells using Retrotek Elisa kit.

The test system of test [2] is HIV-1 LAI. As to the kind of experiment: Inhibition of HIV-reverse transcriptase activity in supernatant of infected human peripheral blood mononuclear cells, Example 2. Type of test: cell-based. The conditions noted are these: 8 nM; added 15-30 minutes after infection. The method, then:
The assessment of antiretroviral activity of ultra low-dose rabbit polyclonal antibodies to CD4 (a mixture of homoeopathic dilutions C12+C30+C50) (hereinafter referred to as “ultra low-dose antibodies to CD4) was carried out using human peripheral blood mononuclear cells infected with the strain HIV-1 LAI in vitro. Azidothymidine (Sigma—AZ169-100 mg, lot 107K1578) was used as a comparator product.
Human peripheral blood mononuclear cells were isolated from blood of a seronegative healthy donor by centrifugation on a Ficoll-Hypaque density gradient. The cells were stimulated for 3 days with 1 μg/mL of phytohemagglutinin P and 5 IU/mL of recombinant human interleukin-2 in RPMI1640 (DIFCO) medium supplemented with 10% fetal calf serum (the complement was removed by heating for 45 minutes at 56° C.), 1% antibiotic solution (PSN Gibco containing 50 μg/mL of penicillin, 50 μg/mL of streptomycin and 100 μg/mL of neomycin). […]
The products' efficiency was established by the inhibition of HIV replication which was assessed by HIV-reverse transcriptase activity in the supernatant fluid from human peripheral blood mononuclear cells using the HIV RT RetroSys kit made by INNOVAGEN (Lot 10-059C). […]

In the next test the test system is HIV-strain-1-LAI. As to the kind of experiment: Inhibition of HIV replication (p24 content) in infected mononuclear cells of human blood, Example 3. It is filed as cell-based, HIV-1. The conditions noted are these: 1000 nM, day 7, read-out: inhibition of HIV reaction (p24 in supernatant).

Excerpt for HIV-strain-1-LAI: The experimental study involved the affine purified rabbit polyclonal antibodies to the human IFN-gamma. The affine purified rabbit polyclonal antibodies to the human gamma interferon were used for development of the (potentiated) antibodies to the gamma interferon in a very-low-dose in the form of serial dilutions C12+C30+C50, obtained in accordance with a homeopathic technology (hereinafter referred to as Ab to IFN-γ in VLD).
Antiviral activity of the composition under review Ab to IFN-γ in VLD and azidothymidine (preparation, based on an active substance of Zidovudine) was studied within the context of mononuclear cells of the human blood, infected in vitro with the HIV-strain-1-LAI. The efficiency of replicating inhibition of HIV was assessed according to the content of a main nucleocapsid protein p24 HIV in the supernatant fluid of the mononuclear cells of the human peripheral blood. […]
Supernatant fluid of the cell culture was collected on the seventh (7) day subsequent to the contamination. The efficiency of the preparations was assessed according to the inhibition of HIV reaction, in its turn assessed in accordance with the content of a main nucleocapsid protein p24 HIV in the supernatant cells by method of IFA, immunofluorescent assay (Retrotek Elisa kit).

Consider `Cc1cn([C@H]2C[C@H](N=[N+]=[N-])[C@@H](CO)O2)c(=O)[nH]c1=O` [Azidothymidine], for which the inhibition at 1 µM in the test with HIV-1 LAI [1] came to 99%; in the test with HIV-strain-1-LAI (Human immunodeficiency virus 1, 168 h, introduced 24 prior to contamination), 99%; in the test on HIV-strain-1-LAI (Human immunodeficiency virus 1, introduced 15 minutes after contamination), 99 ± 1%. For the same compound, the “Inhibition of HIV-reverse transcriptase activity (% of control) Day 7” value in the test with HIV-1 LAI [2] was 58 ± 7 % of control.
